Assays:
MCF7 [1] = experiment: Induction of apoptosis in human MCF7 cells assessed as early apoptotic cells at 7.5 uM measured after 24 hrs by Annexin V-FITC/propidium iodide staining based flow cytometric analysis (reference value: 3.07%); assay type: functional
L02 = experiment: Cytotoxicity against human L02 cells assessed as reduction in cell viability by MTT assay; assay type: cell-based
MCF7 [2] = experiment: Cytotoxicity against human MCF7 cells assessed as reduction in cell viability by MTT assay; assay type: functional, cell-based
MCF7 [3] = experiment: Induction of apoptosis in human MCF7 cells assessed as late apoptotic cells at 10 uM measured after 24 hrs by Annexin V-FITC/propidium iodide staining based flow cytometric analysis (reference value: 1.19%); assay type: functional
MCF7 [4] = experiment: Induction of apoptosis in human MCF7 cells assessed as late apoptotic cells at 5 uM measured after 24 hrs by Annexin V-FITC/propidium iodide staining based flow cytometric analysis (reference value: 1.19%); assay type: functional
MCF7 [5] = experiment: Induction of apoptosis in human MCF7 cells assessed as early apoptotic cells at 10 uM measured after 24 hrs by Annexin V-FITC/propidium iodide staining based flow cytometric analysis (reference value: 3.07%); assay type: functional
A-427 [6] = experiment: Cell cycle arrest in human A-427 cells assessed as accumulation at S phase at 6 uM measured after 24 hrs by PI staining based flow cytometry (reference value: 25.84%); assay type: functional
A-427 [7] = experiment: Cell cycle arrest in human A-427 cells assessed as accumulation at S phase at 2 uM measured after 24 hrs by PI staining based flow cytometry (reference value: 25.84%); assay type: functional
HepG2 = experiment: Cytotoxicity against human HepG2 cells assessed as reduction in cell viability by MTT assay; assay type: functional, cell-based
A-427 [8] = experiment: Cell cycle arrest in human A-427 cells assessed as accumulation at S phase at 4 uM measured after 24 hrs by PI staining based flow cytometry (reference value: 25.84%); assay type: functional
A-427 [9] = experiment: Induction of apoptosis in human A-427 cells assessed as late apoptotic cells at 7.5 uM measured after 24 hrs by Annexin V-FITC/propidium iodide staining based flow cytometric analysis (reference value: 3.59%); assay type: functional
A-427 [10] = experiment: Cell cycle arrest in human A-427 cells assessed as accumulation at G0/G1 phase at 4 uM measured after 24 hrs by PI staining based flow cytometry (reference value: 60.57%); assay type: functional
MCF7 [11] = experiment: Cell cycle arrest in human MCF7 cells assessed as accumulation at G2/M phase at 10 uM measured after 24 hrs by PI staining based flow cytometry (reference value: 18.9%); assay type: functional
A-427 [12] = experiment: Induction of apoptosis in human A-427 cells assessed as early apoptotic cells at 2.5 uM measured after 24 hrs by Annexin V-FITC/propidium iodide staining based flow cytometric analysis (reference value: 4.75%); assay type: functional
MCF7 [13] = experiment: Cell cycle arrest in human MCF7 cells assessed as accumulation at S phase at 10 uM measured after 24 hrs by PI staining based flow cytometry (reference value: 9.43%); assay type: functional
MCF7 [14] = experiment: Cell cycle arrest in human MCF7 cells assessed as accumulation at G0/G1 phase at 5 uM measured after 24 hrs by PI staining based flow cytometry (reference value: 61.67%); assay type: functional
MCF7 [15] = experiment: Cell cycle arrest in human MCF7 cells assessed as accumulation at S phase at 5 uM measured after 24 hrs by PI staining based flow cytometry (reference value: 9.43%); assay type: functional
MCF7 [16] = experiment: Induction of apoptosis in human MCF7 cells assessed as early apoptotic cells at 5 uM measured after 24 hrs by Annexin V-FITC/propidium iodide staining based flow cytometric analysis (reference value: 3.07%); assay type: functional
HeLa = experiment: Cytotoxicity against human HeLa cells assessed as reduction in cell viability by MTT assay; assay type: functional, cell-based
A-427 [17] = experiment: Cell cycle arrest in human A-427 cells assessed as accumulation at G0/G1 phase at 6 uM measured after 24 hrs by PI staining based flow cytometry (reference value: 60.57%); assay type: functional
A-427 [18] = experiment: Cell cycle arrest in human A-427 cells assessed as accumulation at G2/M phase at 4 uM measured after 24 hrs by PI staining based flow cytometry (reference value: 13.59%); assay type: functional
MCF7 [19] = experiment: Induction of apoptosis in human MCF7 cells assessed as late apoptotic cells at 7.5 uM measured after 24 hrs by Annexin V-FITC/propidium iodide staining based flow cytometric analysis (reference value: 1.19%); assay type: functional
A549 = experiment: Cytotoxicity against human A549 cells assessed as reduction in cell viability by MTT assay; assay type: functional, cell-based
MCF7 [20] = experiment: Cell cycle arrest in human MCF7 cells assessed as accumulation at G0/G1 phase at 7.5 uM measured after 24 hrs by PI staining based flow cytometry (reference value: 61.67%); assay type: functional
A-427 [21] = experiment: Induction of apoptosis in human A-427 cells assessed as early apoptotic cells at 5 uM measured after 24 hrs by Annexin V-FITC/propidium iodide staining based flow cytometric analysis (reference value: 4.75%); assay type: functional
A-427 [22] = experiment: Cell cycle arrest in human A-427 cells assessed as accumulation at G0/G1 phase at 2 uM measured after 24 hrs by PI staining based flow cytometry (reference value: 60.57%); assay type: functional
HCT-116 = experiment: Cytotoxicity against human HCT-116 cells assessed as reduction in cell viability by MTT assay; assay type: functional, cell-based
A-427 [23] = experiment: Cell cycle arrest in human A-427 cells assessed as accumulation at G2/M phase at 2 uM measured after 24 hrs by PI staining based flow cytometry (reference value: 13.59%); assay type: functional
MCF7 [24] = experiment: Cell cycle arrest in human MCF7 cells assessed as accumulation at G2/M phase at 7.5 uM measured after 24 hrs by PI staining based flow cytometry (reference value: 18.9%); assay type: functional
A-427 [25] = experiment: Cytotoxicity against human A-427 cells assessed as reduction in cell viability by MTT assay; assay type: functional, cell-based
A-427 [26] = experiment: Induction of apoptosis in human A-427 cells assessed as late apoptotic cells at 5 uM measured after 24 hrs by Annexin V-FITC/propidium iodide staining based flow cytometric analysis (reference value: 3.59%); assay type: functional
A-427 [27] = experiment: Cell cycle arrest in human A-427 cells assessed as accumulation at G2/M phase at 6 uM measured after 24 hrs by PI staining based flow cytometry (reference value: 13.59%); assay type: functional
HT-29 = experiment: Cytotoxicity against human HT-29 cells assessed as reduction in cell viability by MTT assay; assay type: functional, cell-based
A-427 [28] = experiment: Induction of apoptosis in human A-427 cells assessed as late apoptotic cells at 2.5 uM measured after 24 hrs by Annexin V-FITC/propidium iodide staining based flow cytometric analysis (reference value: 3.59%); assay type: functional
A-427 [29] = experiment: Induction of apoptosis in human A-427 cells assessed as early apoptotic cells at 7.5 uM measured after 24 hrs by Annexin V-FITC/propidium iodide staining based flow cytometric analysis (reference value: 4.75%); assay type: functional
MCF7 [30] = experiment: Cell cycle arrest in human MCF7 cells assessed as accumulation at G0/G1 phase at 10 uM measured after 24 hrs by PI staining based flow cytometry (reference value: 61.67%); assay type: functional
MCF7 [31] = experiment: Cell cycle arrest in human MCF7 cells assessed as accumulation at S phase at 7.5 uM measured after 24 hrs by PI staining based flow cytometry (reference value: 9.43%); assay type: functional
MCF7 [32] = experiment: Cell cycle arrest in human MCF7 cells assessed as accumulation at G2/M phase at 5 uM measured after 24 hrs by PI staining based flow cytometry (reference value: 18.9%); assay type: functional

Work on `CC1=C[C@@H]2/C=C/C[C@H](C)CC(=O)/C=C\C(=O)[C@]23C(=O)N[C@@H](Cc2c[nH]c4ccccc24)[C@@H]3[C@@H]1C` yielded an Activity (MCF7 [1]) of 25.77%, an IC50 (L02) of 35.5 µM and an IC50 (MCF7 [2]) of 7.2 µM. It also gave an Activity (MCF7 [3]) of 9.17%, an Activity (MCF7 [4]) of 7.3% and an Activity (MCF7 [5]) of 28.62%. It also gave an Activity (A-427 [6]) of 22.56%, an Activity (A-427 [7]) of 20.39% and an IC50 (HepG2) of 9.6 µM. The Activity (A-427 [8]) was 21.18%, the Activity (A-427 [9]) was 32.81% and the Activity (A-427 [10]) was 34.56%. The Activity (MCF7 [11]) was 60.73%, the Activity (A-427 [12]) was 12.11% and the Activity (MCF7 [13]) was 12.31%. It also gave an Activity (MCF7 [14]) of 37.81%, an Activity (MCF7 [15]) of 13.57% and an Activity (MCF7 [16]) of 18.98%. The IC50 (HeLa) was 8.4 µM, the Activity (A-427 [17]) was 27.41% and the Activity (A-427 [18]) was 44.26%. For the same compound, the Activity (MCF7 [19]) was 7.41%, the IC50 (A549) was 7.9 µM and the Activity (MCF7 [20]) was 35%. It also gave an Activity (A-427 [21]) of 23.77%, an Activity (A-427 [22]) of 44.94% and an IC50 (HCT-116) of 10.6 µM. It also gave an Activity (A-427 [23]) of 34.67%, an Activity (MCF7 [24]) of 51.12% and an IC50 (A-427 [25]) of 6.6 µM. The Activity (A-427 [26]) was 23.7%, the Activity (A-427 [27]) was 50.04% and the IC50 (HT-29) was 8.2 µM. The Activity (A-427 [28]) was 17.54%, the Activity (A-427 [29]) was 27.61% and the Activity (MCF7 [30]) was 26.96%. The Activity (MCF7 [31]) was 13.87% and the Activity (MCF7 [32]) was 48.62%.
